Legend:
Assay in all cases: KINOMEscan kinase binding assay (Eurofins/DiscoveRx), % Ctrl
Conditions in all cases: 1 μM
kinases [1] = biological target: T1, kinases (Homo sapiens, UniProt P00519, Q252H)
T1 construct: purchased Eurofins/DiscoveRx; host or cells: E. coli BL21-derived host (T7 phage display) for most kinases; HEK-293 for the rest
Procedure, shortened: (§1)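 Read-out is qPCR of kinase eluted from ligand-coated streptavidin beads after 1 h room-temperature competition with test compound. Values are % Ctrl at the tested concentration, lower meaning tighter binding.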

kinases [2] = biological target: T2, kinases (Homo sapiens, UniProt P00519, T315I)
T2 construct: purchased Eurofins/DiscoveRx; host or cells: E. coli BL21-derived host (T7 phage display) for most kinases; HEK-293 for the rest
Procedure, shortened: as §1

kinases [3] = biological target: T3, kinases (Homo sapiens, UniProt P00533, G719C)
T3 construct: purchased Eurofins/DiscoveRx; host or cells: E. coli BL21-derived host (T7 phage display) for most kinases; HEK-293 for the rest
Procedure, shortened: as §1

kinases [4] = biological target: T4, kinases (Homo sapiens, UniProt P10721)
T4 construct: purchased Eurofins/DiscoveRx; host or cells: E. coli BL21-derived host (T7 phage display) for most kinases; HEK-293 for the rest
T4 sequence (P10721 26-976): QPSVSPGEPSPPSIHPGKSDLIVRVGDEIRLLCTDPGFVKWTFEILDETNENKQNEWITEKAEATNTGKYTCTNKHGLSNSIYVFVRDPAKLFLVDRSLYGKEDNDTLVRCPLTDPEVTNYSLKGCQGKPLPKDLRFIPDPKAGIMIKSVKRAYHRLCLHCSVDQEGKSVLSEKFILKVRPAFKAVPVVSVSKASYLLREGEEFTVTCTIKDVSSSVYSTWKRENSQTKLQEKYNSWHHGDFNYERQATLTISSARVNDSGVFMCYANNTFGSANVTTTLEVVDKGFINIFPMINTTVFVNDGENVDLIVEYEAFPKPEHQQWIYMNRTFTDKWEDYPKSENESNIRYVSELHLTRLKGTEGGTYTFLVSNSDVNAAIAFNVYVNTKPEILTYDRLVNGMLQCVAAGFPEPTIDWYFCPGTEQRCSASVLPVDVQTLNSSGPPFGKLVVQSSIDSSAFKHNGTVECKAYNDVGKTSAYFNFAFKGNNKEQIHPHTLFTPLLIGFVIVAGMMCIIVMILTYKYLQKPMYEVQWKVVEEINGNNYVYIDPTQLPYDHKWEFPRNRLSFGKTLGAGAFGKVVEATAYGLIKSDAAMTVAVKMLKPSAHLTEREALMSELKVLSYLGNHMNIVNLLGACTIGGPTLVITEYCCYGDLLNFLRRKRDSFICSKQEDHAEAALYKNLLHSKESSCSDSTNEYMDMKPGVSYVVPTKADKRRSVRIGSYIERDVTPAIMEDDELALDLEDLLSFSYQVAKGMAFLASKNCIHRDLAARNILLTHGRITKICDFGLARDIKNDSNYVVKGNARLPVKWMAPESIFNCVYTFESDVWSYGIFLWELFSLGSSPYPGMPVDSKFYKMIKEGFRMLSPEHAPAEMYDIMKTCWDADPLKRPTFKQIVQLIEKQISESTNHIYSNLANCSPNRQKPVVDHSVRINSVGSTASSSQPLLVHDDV
Procedure, shortened: as §1

kinases [5] = biological target: T5, kinases (Homo sapiens, UniProt P10721, T670I/V559D)
T5 construct: purchased Eurofins/DiscoveRx; host or cells: E. coli BL21-derived host (T7 phage display) for most kinases; HEK-293 for the rest
T5 sequence (P10721 26-976 V559D/T670I): as the sequence (P10721 26-976) above, with V534D, T645I counted along it
Procedure, shortened: as §1

kinases [6] = biological target: T6, kinases (Homo sapiens, UniProt P36888, N841I)
T6 construct: purchased Eurofins/DiscoveRx; host or cells: E. coli BL21-derived host (T7 phage display) for most kinases; HEK-293 for the rest
T6 sequence (P36888 27-993 N841I): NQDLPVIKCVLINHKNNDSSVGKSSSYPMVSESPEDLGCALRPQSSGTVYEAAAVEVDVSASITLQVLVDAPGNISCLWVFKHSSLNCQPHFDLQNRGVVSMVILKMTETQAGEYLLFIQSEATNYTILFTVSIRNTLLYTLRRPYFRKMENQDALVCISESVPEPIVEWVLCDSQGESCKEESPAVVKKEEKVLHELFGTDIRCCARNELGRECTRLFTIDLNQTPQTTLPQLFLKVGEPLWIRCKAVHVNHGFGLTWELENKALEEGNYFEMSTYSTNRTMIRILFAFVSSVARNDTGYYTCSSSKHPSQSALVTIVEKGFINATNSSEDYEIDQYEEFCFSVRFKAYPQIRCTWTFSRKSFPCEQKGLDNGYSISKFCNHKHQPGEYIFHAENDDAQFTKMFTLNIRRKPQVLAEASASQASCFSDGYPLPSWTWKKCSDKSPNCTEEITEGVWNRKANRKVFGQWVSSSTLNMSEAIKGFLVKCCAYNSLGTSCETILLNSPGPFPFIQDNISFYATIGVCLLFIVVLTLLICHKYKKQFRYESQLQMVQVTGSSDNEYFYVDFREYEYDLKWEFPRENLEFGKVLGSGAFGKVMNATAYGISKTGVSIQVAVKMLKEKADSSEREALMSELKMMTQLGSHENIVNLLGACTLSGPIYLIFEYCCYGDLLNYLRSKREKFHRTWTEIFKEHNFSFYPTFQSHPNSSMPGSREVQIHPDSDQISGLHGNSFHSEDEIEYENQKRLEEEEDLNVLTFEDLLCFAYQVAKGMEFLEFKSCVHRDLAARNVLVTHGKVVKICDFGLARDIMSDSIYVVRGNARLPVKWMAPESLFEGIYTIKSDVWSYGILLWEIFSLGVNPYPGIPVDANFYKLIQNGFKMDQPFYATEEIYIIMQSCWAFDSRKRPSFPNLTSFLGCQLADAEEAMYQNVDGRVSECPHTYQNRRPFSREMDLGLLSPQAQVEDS
Procedure, shortened: as §1

kinases [7] = test system: kinases
Procedure, shortened: as §1

[8] = target ABL1(Q252H)-nonphosphorylated
[9] = target ABL1(Q252H)-phosphorylated
[10] = target ABL1(T315I)-nonphosphorylated
[11] = target ABL1(T315I)-phosphorylated
[12] = target EGFR(L747-E749del, A750P)
[13] = target EGFR(L747-S752del, P753S)
[14] = target EGFR(L747-T751del, Sins)

% Ctrl, ABL1(Q252H)-nonphosphorylated (kinases [1]; ABL1(Q252H)-nonphosphorylated) [% Ctrl]	% Ctrl, ABL1(Q252H)-phosphorylated (kinases [1]; ABL1(Q252H)-phosphorylated) [% Ctrl]	% Ctrl, ABL1(T315I)-nonphosphorylated (kinases [2]; ABL1(T315I)-nonphosphorylated) [% Ctrl]	% Ctrl, ABL1(T315I)-phosphorylated (kinases [2]; ABL1(T315I)-phosphorylated) [% Ctrl]	% Ctrl, EGFR(G719C) (kinases [3]; EGFR(G719C)) [% Ctrl]	% Ctrl, KIT (kinases [4]; KIT) [% Ctrl]	% Ctrl, KIT-autoinhibited (kinases [4]; KIT-autoinhibited) [% Ctrl]	% Ctrl, KIT(V559D, T670I) (kinases [5]; KIT(V559D, T670I)) [% Ctrl]	% Ctrl, FLT3(N841I) (kinases [6]; FLT3(N841I)) [% Ctrl]	% Ctrl, EGFR(L747-E749del, A750P) (kinases [7]; EGFR(L747-E749del, A750P)) [% Ctrl]	% Ctrl, EGFR(L747-S752del, P753S) (kinases [7]; EGFR(L747-S752del, P753S)) [% Ctrl]	% Ctrl, EGFR(L747-T751del, Sins) (kinases [7]; EGFR(L747-T751del, Sins)) [% Ctrl]	% Ctrl, FLT3(ITD) (kinases [7]; FLT3(ITD)) [% Ctrl]	% Ctrl, FLT3(ITD, D835V) (kinases [7]; FLT3(ITD, D835V)) [% Ctrl]	% Ctrl, FLT3(ITD, F691L) (kinases [7]; FLT3(ITD, F691L)) [% Ctrl]	SMILES	also measured
43	47	94	72	82	55	82	6.3	41	82	80	98	52	11	25	CNC(=O)[C@H]1CN(C)C(=O)c2cc(C)[nH]c2/C=C2\C(=O)Nc3cc(Cl)c(cc32)OCCO1 [Ex. 135, [7R,16a(17)Z]-19-chloro-N,2,5-trimethyl-4,16-dioxo-4,5,6,7,9,10,15,16-octahydro-1H-12,14-(ethanediylidene)dipyrrolo[3,2-i:3′,4′-l][1,4,7]dioxazacyclopentadecine-7-carboxamide]	–
24	14	77	37	90	49	83	3.2	14	80	82	94	23	2.8	5.7	Cc1cc2c([nH]1)/C=C1\C(=O)Nc3cc(Cl)c(cc31)OCCO[C@@H](C(=O)N[C@@H]1CCNC1)CN(C)C2=O [Ex. 136, [7R,16a(17)Z]-19-chloro-2,5-dimethyl-4,16-dioxo-N-[(3R)-pyrrolidin-3-yl]-4,5,6,7,9,10,15,16-octahydro-1H-12,14-(ethanediylidene)dipyrrolo[3,2-i:3′,4′-l][1,4,7]dioxazacyclopentadecine-7-carboxamide]	–
–	–	–	–	–	–	–	–	–	–	–	–	–	–	–	Cc1cc2c([nH]1)/C=C1\C(=O)Nc3cnc(cc31)-c1cn[nH]c1CNCCN(C)C2=O [Ex. 55, [3a(4)Z]-6,9-dimethyl-9,10,11,12,13,14-hexahydro-17,1-(azenometheno)pyrazolo[4,3-m]dipyrrolo[3,2-f:3′,4′-i][1,4]diazacyclopentadecine-3,8(2,5H)-dione]	% Ctrl, ABL1(Q252H)-nonphosphorylated (kinases [1]; [8]): 2.8 % Ctrl; % Ctrl, ABL1(Q252H)-phosphorylated (kinases [1]; [9]): 1.7 % Ctrl; % Ctrl, ABL1(T315I)-nonphosphorylated (kinases [2]; [10]): 1.6 % Ctrl; % Ctrl, ABL1(T315I)-phosphorylated (kinases [2]; [11]): 2.6 % Ctrl; % Ctrl, EGFR(G719C) (kinases [3]; target EGFR(G719C)): 68 % Ctrl; % Ctrl, KIT-autoinhibited (kinases [4]; target KIT-autoinhibited): 39 % Ctrl; % Ctrl, KIT (kinases [4]; target KIT): 74 % Ctrl; % Ctrl, KIT(V559D, T670I) (kinases [5]; target KIT(V559D, T670I)): 50 % Ctrl; % Ctrl, FLT3(N841I) (kinases [6]; target FLT3(N841I)): 0 % Ctrl; % Ctrl, EGFR(L747-E749del, A750P) (kinases [7]; [12]): 82 % Ctrl; % Ctrl, EGFR(L747-S752del, P753S) (kinases [7]; [13]): 56 % Ctrl; % Ctrl, EGFR(L747-T751del, Sins) (kinases [7]; [14]): 66 % Ctrl; % Ctrl, FLT3(ITD) (kinases [7]; target FLT3(ITD)): 0.3 % Ctrl; % Ctrl, FLT3(ITD, D835V) (kinases [7]; target FLT3(ITD, D835V)): 1.2 % Ctrl; % Ctrl, FLT3(ITD, F691L) (kinases [7]; target FLT3(ITD, F691L)): 0.1 % Ctrl
0	0	0	0.1	87	45	93	24	0	25	37	57	0	0	0.65	Cc1cc2c([nH]1)/C=C1\C(=O)Nc3ccc(cc31)-c1cnn(C)c1COCCN(C)C2=O [Ex. 124, [3a(4)Z]-6,9,14-trimethyl-10,11,13,14-tetrahydro-2H-1,17-(ethanediylidene)pyrazolo[4,3-m]dipyrrolo[3,2-f:3′,4′-i][1,4]oxazacyclopentadecine-3,8(5H,9H)-dione]	–
48	51	81	69	100	90	72	27	49	100	100	100	44	9.1	29	Cc1cc2c([nH]1)/C=C1\C(=O)Nc3cc(Cl)c(cc31)OCCO[C@@H](C(=O)N(C)C)CN(C)C2=O [Ex. 137, [7R,16a(17)Z]-19-chloro-N,N,2,5-tetramethyl-4,16-dioxo-4,5,6,7,9,10,15,16-octahydro-1H-12,14-(ethanediylidene)dipyrrolo[3,2-i:3′,4′-l][1,4,7]dioxazacyclopentadecine-7-carboxamide]	–
–	–	–	–	–	–	–	–	–	–	–	–	–	–	–	CN1CCOCCOc2cc3c(cc2Cl)NC(=O)/C3=C\c2[nH]ccc2C1=O [Ex. 143, [16a(17)Z]-19-chloro-2,5-dimethyl-6,7,9,10-tetrahydro-1H-12,14-(ethanediylidene)dipyrrolo[3,2-i:3′,4′-l][1,4,7]oxathiazacyclopentadecine-4,16(5H,15H)-dione]	% Ctrl, ABL1(Q252H)-nonphosphorylated (kinases [1]; [8]): 4.1 % Ctrl; % Ctrl, ABL1(Q252H)-phosphorylated (kinases [1]; [9]): 5.2 % Ctrl; % Ctrl, ABL1(T315I)-nonphosphorylated (kinases [2]; [10]): 42 % Ctrl; % Ctrl, ABL1(T315I)-phosphorylated (kinases [2]; [11]): 27 % Ctrl; % Ctrl, EGFR(G719C) (kinases [3]; target EGFR(G719C)): 100 % Ctrl; % Ctrl, KIT-autoinhibited (kinases [4]; target KIT-autoinhibited): 40 % Ctrl; % Ctrl, KIT (kinases [4]; target KIT): 9.9 % Ctrl; % Ctrl, KIT(V559D, T670I) (kinases [5]; target KIT(V559D, T670I)): 1.6 % Ctrl; % Ctrl, FLT3(N841I) (kinases [6]; target FLT3(N841I)): 5.5 % Ctrl; % Ctrl, EGFR(L747-E749del, A750P) (kinases [7]; [12]): 90 % Ctrl; % Ctrl, EGFR(L747-S752del, P753S) (kinases [7]; [13]): 89 % Ctrl; % Ctrl, EGFR(L747-T751del, Sins) (kinases [7]; [14]): 96 % Ctrl; % Ctrl, FLT3(ITD) (kinases [7]; target FLT3(ITD)): 2.5 % Ctrl; % Ctrl, FLT3(ITD, D835V) (kinases [7]; target FLT3(ITD, D835V)): 0.6 % Ctrl; % Ctrl, FLT3(ITD, F691L) (kinases [7]; target FLT3(ITD, F691L)): 1 % Ctrl
92	100	100	100	90	97	97	97	95	9	100	74	93	100	39	Cc1cc2c([nH]1)/C=C1\C(=O)Nc3cnc(cc31)-c1cnn(C)c1COCCNC2=O [Ex.123, [3a(4)Z]-6,14-dimethyl-10,11,13,14-tetrahydro-2H-17,1-(azenometheno)pyrazolo[4,3-m]dipyrrolo[3,2-f:3′,4′-i][1,4]oxazacyclopentadecine-3,8(5H,9H)-dione]	–
